# Reference: patent publication US20240336615A1, “CYCLOPROPYL-(HETERO)ARYL-SUBSTITUTED ETHYL-SULFOXIME-PYRIDINE DERIVATIVES” (Boehringer Ingelheim Vetmedica GmbH, priority 2023, published 2024)
# Assays:
# [1] = system: adult R. sanguineus ticks; test: Contact activity against adult Rhipicephalus sanguineus (Example 5); settings: coated vials, 48 hours post-treatment, read-out: EC50 (contact activity, percentage mortality)
# Procedure: Compounds of formulae (I), (Ia) and/or (Ib) formulated in 100% DMSO are diluted in a solution containing acetone and Triton X-100 (0.02%). The resulting formulation is used to coat the inner walls of glass scintillation vials and the filter paper covering the cap of the vial. Once dried, ten adult R. sanguineus ticks are added to the vials. The vials are incubated at 24° C., 95% relative humidity, and 12 hours of light/12 hours of dark until evaluation. Ticks are visually evaluated for mortality at 48 hours post-treatment. Compound efficacy at a given dose is expressed as percentage mortality. A dose response series is implemented to determine EC50 values.
# Myzus persicae = test: Insecticidal test on Myzus persicae (Example 17); type: in vivo; settings: 144 h, foliar application on Chinese cabbage, 6 days after application, read-out: control efficacy level (control rate)
# Source text: The compounds of formula (I), (Ia) and/or (Ib) of the present invention or salts thereof are separately dispersed in water and diluted to 500 ppm and 50 ppm. Chinese cabbage plants are planted in plastic pots (diameter: 8 cm, height: 8 cm). Aphids (Myzus persicae) are propagated on the plants and then the number of surviving aphids is counted. The dispersion is applied to the foliage of the potted plants. After the plants are air dried, these are kept in a greenhouse. 6 days after the application, the number of the alive insects is counted on the plants. The control rate is calculated according to the following formula and the control efficacy is evaluated according to the following criteria. [formula] • Ta: the number of alive insects before the foliar application in a treated plot • T: the number of alive insects after the foliar application in a treated plot • Ca: the number of alive insects before the foliar application in an untreated plot • C: the number of alive insects after the foliar application in an untreated plot • A: the control rate is 100% • B: the control rate is 90 to 99% • C: the control rate is 80 to 89% • D: the control rate is 50 to 79%
# Laodelphax striatellus = test: Insecticidal test on Laodelphax striatellus (Example 16); type: in vivo; settings: 192 h, rice seedling dip, 3rd-instar nymphs, 8 days after inoculation, read-out: activity level (corrected mortality rate)
# Procedure: The compounds of formula (I), (Ia) and/or (Ib) of the present invention or salts thereof are separately dispersed in water and diluted to 500 ppm and 50 ppm. Rice plant seedlings are dipped in the dispersion for about 30 seconds. After air dried, the seedlings are put into a separate glass test tube and inoculated with ten 3rd-instar nymphs of Laodelphax striatellus and then the glass test tube is kept in a room at 25° C. 8 days after the inoculation, the numbers of the dead and alive insects are counted. The corrected mortality rate is calculated according to the following formula and the insecticidal activity is evaluated according to the following criteria.
# Plutella xylostella = test: Insecticidal test on Plutella xylostella (Example 15); type: in vivo; settings: 144 h, Chinese cabbage seedling dip, 6 days after dip treatment, read-out: activity level (corrected mortality rate)
# Procedure: The compounds of formula (I), (Ia) and/or (Ib) of the present invention or salts thereof are separately dispersed in water and diluted to 500 ppm and 50 ppm. Ten adults of Plutella xylostella are released onto Chinese cabbage seedlings and allowed to lay eggs thereon. 2 days after the release of the adults, the seedling is dipped in the dispersion for about 30 seconds. After air dried, the seedling is kept in a room at 25° C. 6 days after the dip treatment, the numbers of the dead and alive insects are counted. The corrected mortality rate is calculated according to the following formula and the insecticidal activity is evaluated according to the following criteria.
# adult C. felis fleas [2] = test: Ingestion activity against adult Ctenocephalides felis, membrane feeding, alternative method (Examples 7 and 13); settings: Ctenocephalides felis
# Procedure: Selected compounds of formula (I), (Ia) and (Ib) and compound “125” of WO 2021/033141 dissolved in 100% DMSO are diluted in bovine blood with sodium heparin anti-coagulant. The resulting formulation is offered via an artificial membrane feeding system to approximately 15 adult C. felis fleas previously dispensed into 24-well plates. The plates are then incubated in a double-chambered device. Visual evaluation for mortality is performed at 48 hours post-treatment. Compound efficacy at a given dose is expressed as percentage mortality and determined by normalization to positive and negative controls. A dose response series is implemented to determine EC50 values.
# Compounds of formulae (I), (Ia) and/or (Ib) dissolved in 100% DMSO are diluted in bovine blood with sodium heparin anti-coagulant. The resulting formulation is offered via an artificial membrane feeding system to approximately 15 adult C. felis fleas previously dispensed into 24-well plates. The plates are then incubated in a double-chambered device. Visual evaluation for mortality is performed at 48 hours post-treatment. Compound efficacy at a given dose is expressed as percentage mortality and determined by normalization to positive and negative controls. A dose response series is implemented to determine EC50 values.
# Spodoptera litura = test: Insecticidal test on Spodoptera litura (Example 14); type: in vivo; settings: foliar, 192 h, cabbage leaf dip, 2nd-instar larvae, 8 days after inoculation, read-out: activity level (corrected mortality rate)
# Procedure: The compounds of formula (I), (Ia) and/or (Ib) of the present invention or salts thereof are separately dispersed in water and diluted to 500 ppm and 50 ppm. Cabbage leaves are dipped in the dispersion for about 30 seconds. After air dried, the leaves are placed in a plastic Petri dish with a diameter of 9 cm and inoculated with ten 2nd-instar larvae of Spodoptera litura, after which the dish is closed and then allowed to stand in a room at 25° C. 8 days after the inoculation, the numbers of the dead and alive insects are counted. The corrected mortality rate is calculated according to the following formula and the insecticidal activity is evaluated according to the following criteria.
# [formula] [formula] • A: the corrected mortality rate is 100% • B: the corrected mortality rate is 90 to 99% • C: the corrected mortality rate is 80 to 89% • D: the corrected mortality rate is 50 to 79%
# adult C. felis fleas [3] = test: Ingestion activity against adult Ctenocephalides felis, membrane feeding, motility (Example 6); settings: 48 h, bovine blood via artificial membrane, 48h post treatment, read-out: EC50 (ingestion activity, % motility reduction)
# Procedure: Compounds of formulae (I), (Ia) and/or (Ib) dissolved in 100% DMSO are added to bovine blood and offered via an artificial membrane feeding system to adult C. felis fleas. The motility of fleas is then visually inspected 48h post treatment. Efficacy is expressed in % motility reduction compared to controls containing blood treated with DMSO only. A dose response series is implemented to determine EC50 values.
# [4] = system: adult Ctenocephalides felis fleas; test: Contact activity against adult Ctenocephalides felis (Example 4); settings: adult C. felis, coated pipe cleaner in vial, 72 hours post-treatment, read-out: EC50 (contact activity, percentage mortality)
# Procedure: Compounds of formulae (I), (Ia) and/or (Ib) dissolved in 100% DMSO are diluted in acetone to a desired concentration. The resulting formulation is used to coat the fibers of a 0.5-inch-long piece of pipe cleaner placed in a glass scintillation vial. The vial is capped with a rubber gasket and filter paper insert. After the acetone has evaporated, ten adult Ctenocephalides felis fleas are added to each vial. The vials are then incubated at 22° C., 80% relative humidity, and 12 hours of light/12 hours of dark until a visual evaluation for mortality is performed at 72 hours post-treatment. Compound efficacy at a given dose is expressed as percentage mortality and adjusted to remove background mortality observed in control vials containing DMSO only. A dose response series of treated vials is implemented to determine EC50 values.
# A. aegypti L1 larvae = test: Activity against larvae of Aedes aegypti (Example 3); settings: 48 h at 27° C., read-out: EC50 (percentage of mortality, larvae)
# Procedure: Eight A. aegypti L1 larvae in a total volume of 64 μL water are added to 384-well microplates containing compounds of formulae (I), (Ia) and/or (Ib) formulated in 100% DMSO. The plates are incubated for 48 h at 27° C. Individual well images are acquired and analyzed using a pipeline to quantitatively assess the amount of larvae biomass accumulating at the bottom of the well. The efficacy of a compound at a given dose is expressed as “percentage of mortality” and determined by comparison to average biomass descriptors of positive and negative control wells containing 1.0 μM Fipronil or DMSO only, respectively. Dose response assay are conducted to determine an EC50 value.
# [5] = adult C. felis, bovine blood with sodium heparin, membrane feeding, 48 hours post-treatment, read-out: EC50 (ingestion activity, percentage mortality, alternative method)
# [6] = alternative method according to Example 7, mortality at 48 hours post-treatment, read-out: C. felis membrane feeding (ingestion/blood feeding) activity EC50
Compound,EC50 [1],pest or weed control at 50 ppm (Myzus persicae),mortality at 50 ppm (Laodelphax striatellus),mortality at 50 ppm (Plutella xylostella),EC50 (adult C. felis fleas [2]; [5]),EC50 (adult C. felis fleas [2]; [6]),mortality at 50 ppm (Spodoptera litura),EC50 (adult C. felis fleas [3]),EC50 [4],pest or weed control at 500 ppm (Myzus persicae),mortality at 500 ppm (Laodelphax striatellus),mortality at 500 ppm (Plutella xylostella),mortality at 500 ppm (Spodoptera litura),EC50 (A. aegypti L1 larvae)
CCS(=N)(=O)c1cc(-c2noc(C3(C(F)(F)F)CC3)n2)cnc1-c1nc2cc(C(F)(F)C(F)(F)F)cnc2n1C (stereo not shown) [Compound 3],10000 to 100000 nM,100%,100%,100%,< 1000 nM,448 nM,100%,< 1000 nM,< 10000 nM,–,–,–,–,–
CCS(=N)(=O)c1cc(-c2noc(C3(F)CC3)n2)cnc1-c1nc2cc(C(F)(F)C(F)(F)F)cnc2n1C (stereo not shown) [Compound 5],10000 to 100000 nM,–,–,–,1000 to 10000 nM,1080 nM,–,1000 to 10000 nM,< 10000 nM,100%,100%,100%,100%,–
CCS(=N)(=O)c1cc(-c2noc(C3CC3)n2)cnc1-c1nc2cc(C(F)(F)C(F)(F)F)nnc2n1C (stereo not shown) [Compound 8],10000 to 100000 nM,–,–,–,< 1000 nM,643 nM,–,1000 to 10000 nM,< 10000 nM,100%,100%,100%,–,–
CCS(=N)(=O)c1cc(-c2cc(C3CC3)no2)cnc1-c1nc2cc(C(F)(F)C(F)(F)F)cnc2n1C (stereo not shown) [Compound 19],10000 to 100000 nM,–,–,–,1000 to 10000 nM,–,–,< 1000 nM,< 10000 nM,100%,100%,100%,100%,–
CCS(=N)(=O)c1cc(-c2cc(C3CC3)ns2)cnc1-c1nc2cc(C(F)(F)C(F)(F)F)cnc2n1C (stereo not shown) [Compound 20],10000 to 100000 nM,–,100%,100%,1000 to 10000 nM,–,100%,< 1000 nM,< 10000 nM,–,–,–,–,–
CCS(=N)(=O)c1cc(-c2cnn(C3CC3)c2)cnc1-c1nc2cc(C(F)(F)C(F)(F)F)cnc2n1C (stereo not shown) [Compound 22],–,100%,100%,100%,< 1000 nM,981 nM,–,< 1000 nM,10000 to 100000 nM,–,–,–,100%,–
CCS(=N)(=O)c1cc(-c2cc(C3CC3)on2)cnc1-c1nc2cc(C(F)(F)C(F)(F)F)cnc2n1C (stereo not shown) [Compound 24],10000 to 100000 nM,100%,–,100%,< 1000 nM,839 nM,100%,< 1000 nM,< 10000 nM,100%,100%,100%,–,–
CCS(=N)(=O)c1cc(-c2cc(C3CC3)sn2)cnc1-c1nc2cc(C(F)(F)C(F)(F)F)cnc2n1C (stereo not shown) [Compound 25],–,100%,–,100%,1000 to 10000 nM,–,100%,< 1000 nM,10000 to 100000 nM,–,100%,–,–,–
CCS(=N)(=O)c1cc(-n2cc(C3CC3)cn2)cnc1-c1nc2cc(C(F)(F)C(F)(F)F)cnc2n1C (stereo not shown) [Compound 27],< 10000 nM,–,–,–,< 1000 nM,177 nM,–,< 1000 nM,< 10000 nM,100%,100%,100%,100%,–
CCS(=N)(=O)c1cc(-c2cnn(C3CC3)c2)cnc1-c1nc2cc(C(F)(F)C(F)(F)F)nnc2n1C (stereo not shown) [Compound 30],10000 to 100000 nM,–,–,–,< 1000 nM,519 nM,–,< 1000 nM,< 10000 nM,100%,100%,100%,100%,–
CCS(=N)(=O)c1cc(-c2noc(C3(C(F)(F)F)CC3)n2)cnc1-c1nc2cc(C(F)(F)C(F)(F)F)nnc2n1C (stereo not shown) [Compound 31],10000 to 100000 nM,100%,100%,100%,< 1000 nM,78 nM,–,< 1000 nM,< 10000 nM,–,–,–,–,< 40 nM
